The target of this assay is T1, wild-type menin / MLL-AF9 fusion protein (Homo sapiens, UniProt O00255).
T1 construct: made in house; host or cells: E. coli (menin); HEK293 cleared lysate (MLL-AF9-FLAG)
T1 sequence (O00255 1-610): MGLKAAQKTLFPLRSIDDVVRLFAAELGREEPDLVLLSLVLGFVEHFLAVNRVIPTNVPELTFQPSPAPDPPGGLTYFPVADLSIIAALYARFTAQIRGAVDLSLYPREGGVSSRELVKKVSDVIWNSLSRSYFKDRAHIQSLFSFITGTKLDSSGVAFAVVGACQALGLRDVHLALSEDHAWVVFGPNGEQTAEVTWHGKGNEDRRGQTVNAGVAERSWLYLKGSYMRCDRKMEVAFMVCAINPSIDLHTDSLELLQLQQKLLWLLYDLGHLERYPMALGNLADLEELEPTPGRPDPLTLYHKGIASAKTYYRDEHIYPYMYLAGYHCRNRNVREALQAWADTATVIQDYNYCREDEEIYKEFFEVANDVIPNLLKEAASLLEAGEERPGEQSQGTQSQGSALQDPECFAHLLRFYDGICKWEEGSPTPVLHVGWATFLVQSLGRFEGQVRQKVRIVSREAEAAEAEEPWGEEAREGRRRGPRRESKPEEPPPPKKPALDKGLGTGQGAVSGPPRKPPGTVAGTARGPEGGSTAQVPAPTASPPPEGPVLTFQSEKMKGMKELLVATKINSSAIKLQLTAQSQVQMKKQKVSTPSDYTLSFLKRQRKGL
Briefly: AlphaLISA menin/MLL binding assay, wild-type menin (Assay 1). The following applies: biotinylated wild-type menin 5 nM, MLL-AF9-FLAG lysate. Here is the method:
Potencies of inhibitor compounds against menin/MLL binding were assessed by AlphaLISA assay using biotinylated (1) wild-type menin or (2) mutated menin (described in Nature (2012) Vol. 482, pp. 542-548) and MLL-AF9 fusion protein bearing a FLAG epitope at its C-terminus. Menin proteins were expressed in E. coli and covalently modified with biotin using EZ-Link™ Sulfo-NHS-Biotin (ThermoFisher Cat. No. 21217) according to manufacturer's protocol. MLL1-1,396 fused to AF91-92 and the C-terminal FLAG peptide was expressed in HEK293 cells and used as a lysate cleared at 21,000×g for 10 min.
Compounds (2 μL of solutions in DMSO) were dispensed in white 96-well half-area plates (Corning Cat. No. 3693) and incubated for 30 min at RT with 5 nM biotinylated menin and appropriate amount of MLL-AF9-FLAG lysate in 40 μL of 50 mM Tris-HCl buffer pH 7.4 containing 5% (v/v) DMSO, 50 mM NaCl, 0.01% (w/v) bovine serum albumin (BSA) and 1 mM DTT. To this incubation mixture, 40 μl of AlphaLISA anti-FLAG acceptor (PerkinElmer Cat. No. AL112C) and streptavidin donor (PerkinElmer Cat. No. 6760002) beads (10 μg/mL each) was added and incubation continued at RT for 60 min. Alpha (amplified luminescent proximity homogeneous assay) signal was measured on an Envision multi-label plate reader at the end of the incubation. All steps were conducted under dim fluorescent light.
These percent inhibition values were regressed against compound concentrations in the assay using four parameter logit non-linear curve fitting (XLFit, IDBS). The IC50 values were derived from the curve fitting as inflection points on the dose-response curves and are set out in Table 1 below.
For orientation: Bead proximity is the source of the signal in Alpha formats.

Usually IC50 stands for the concentration that gives 50% inhibition. Turning to `Cc1c(CN2CCC3(CCN(c4ncnc5sc(CC(F)(F)F)cc45)C3)C2)ccc2[nH]c(C#N)cc12` (single isomer, unassigned) [Example 30b, 4-methyl-5-((7-(6-(2,2,2-trifluoroethyl)thieno[2,3-d]pyrimidin-4-yl)-2,7-diazaspiro[4.4]nonan-2-yl)methyl)-1H-indole-2-carbonitrile], the IC50 is less than 100 nM.

In turn, `Cc1c(CN2CC[C@@]3(CCN(c4ccnc5ccc(CC(F)(F)F)cc45)C3)C2)ccc2[nH]c(C#N)cc12` (single isomer, unassigned) [Example 86a, 4-methyl-5-((7-(6-(2,2,2-trifluoroethyl)quinolin-4-yl)-2,7-diazaspiro[4.4]nonan-2-yl)methyl)-1H-indole-2-carbonitrile] gave a half-inhibitory concentration (IC50) of 100 to 1000 nM.

Take `Cc1c(CN2CC[C@@]3(CCN(c4ccnc5ccc(CC(F)(F)F)cc45)C3)C2)ccc2[nH]c(C#N)cc12` (single isomer, unassigned) [Example 86b, 4-methyl-5-((7-(6-(2,2,2-trifluoroethyl)quinolin-4-yl)-2,7-diazaspiro[4.4]nonan-2-yl)methyl)-1H-indole-2-carbonitrile]: the IC50 fell in the range of 100 to 1000 nM.

On to `CC(C)N1CC2(CCN(c3ncnc4sc(CC(F)(F)F)cc34)CC2)C1` [Example 3, 4-(2-isopropyl-2,7-diazaspiro[3.5]nonan-7-yl)-6-(2,2,2-trifluoroethyl)thieno[2,3-d]pyrimidine], for which the IC50 is not below 1000 nM.

For `FC(F)(F)Cc1cc2c(N3CCC4(CC3)CN(CC3CCCO3)C4)ncnc2s1` (stereo not shown) [Example 4, 4-(2-((tetrahydrofuran-2-yl)methyl)-2,7-diazaspiro[3.5]nonan-7-yl)-6-(2,2,2-trifluoroethyl)thieno[2,3-d]pyrimidine], the IC50 is not below 1000 nM.

Molecule `FC(F)(F)Cc1cc2c(N3CCC4(CC3)CN(CC3CCOC3)C4)ncnc2s1` (stereo not shown) [Example 5, 4-(2-((tetrahydrofuran-3-yl)methyl)-2,7-diazaspiro[3.5]nonan-7-yl)-6-(2,2,2-trifluoroethyl)thieno[2,3-d]pyrimidine] returned an IC50 of 100 to 1000 nM.

In the case of `FC(F)(F)Cc1cc2c(N3CCC4(CC3)CN(CC3CCCCO3)C4)ncnc2s1` (stereo not shown) [Example 6, 4-(2-((tetrahydro-2H-pyran-2-yl)methyl)-2,7-diazaspiro[3.5]nonan-7-yl)-6-(2,2,2-trifluoroethyl)thieno[2,3-d]pyrimidine], the IC50 was not below 1000 nM.

`FC(F)(F)Cc1cc2c(N3CCC4(CC3)CN(CC3CCCOC3)C4)ncnc2s1` (stereo not shown) [Example 7, 4-(2-((tetrahydro-2H-pyran-3-yl)methyl)-2,7-diazaspiro[3.5]nonan-7-yl)-6-(2,2,2-trifluoroethyl)thieno[2,3-d]pyrimidine] came in with an IC50 not below 1000 nM.

`FC(F)(F)Cc1cc2c(N3CCC4(CC3)CN(C3CCOCC3)C4)ncnc2s1` [Example 8, 4-(2-(tetrahydro-2H-pyran-4-yl)-2,7-diazaspiro[3.5]nonan-7-yl)-6-(2,2,2-trifluoroethyl)thieno[2,3-d]pyrimidine]: the 50% inhibitory concentration (IC50) was not below 1000 nM.

With `FC(F)(F)Cc1cc2c(N3CCC4(CC3)CN(C3CCCCC3)C4)ncnc2s1` [Example 9, 4-(2-cyclohexyl-2,7-diazaspiro[3.5]nonan-7-yl)-6-(2,2,2-trifluoroethyl)thieno[2,3-d]pyrimidine], the IC50 lay in the range of 100 to 1000 nM.

As for `FC(F)(F)Cc1cc2c(N3CCC4(CC3)CN(CC3CCCC(F)(F)C3)C4)ncnc2s1` (stereo not shown) [Example 11, 4-(2-((3,3-difluorocyclohexyl)methyl)-2,7-diazaspiro[3.5]nonan-7-yl)-6-(2,2,2-trifluoroethyl)thieno[2,3-d]pyrimidine], the IC50 is 100 to 1000 nM.

Regarding `FC(F)(F)Cc1cc2c(N3CCC4(CC3)CN(CC3CCC(F)(F)CC3)C4)ncnc2s1` [Example 12, 4-(2((4,4-difluorocyclohexyl)methyl)-2,7-diazaspiro[3.5]nonan-7-yl)-6-(2,2,2-trifluoroethyl)thieno[2,3-d]pyrimidine], the half-maximal inhibitory concentration (IC50) lay within 100 to 1000 nM.

In turn, `COC1CC(CN2CC3(CCN(c4ncnc5sc(CC(F)(F)F)cc45)CC3)C2)C1` (stereo not shown) [Example 13] displayed an IC50 not below 1000 nM.

`FC(F)(F)Cc1cc2c(N3CCC4(CC3)CN(CC3CC(F)(F)C3)C4)ncnc2s1` [Example 14, 4-(2-((3,3-difluorocyclobutyl)methyl)-2,7-diazaspiro[3.5]nonan-7-yl)-6-(2,2,2-trifluoroethyl)thieno[2,3-d]pyrimidine] registered an IC50 of 100 to 1000 nM.

For `CC(C)(O)CN1CC2(CCN(c3ncnc4sc(CC(F)(F)F)cc34)CC2)C1` [Example 15, 2-methyl-1-(7-(6-(2,2,2-trifluoroethyl)thieno[2,3-d]pyrimidin-4-yl)-2,7-diazaspiro[3.5]nonan-2-yl)propan-2-ol], the IC50 was not below 1000 nM.

`CC(C)(F)CN1CC2(CCN(c3ncnc4sc(CC(F)(F)F)cc34)CC2)C1` [Example 16, 4-(2-(2-fluoro-2-methylpropyl)-2,7-diazaspiro[3.5]nonan-7-yl)-6-(2,2,2-trifluoroethyl)thieno[2,3-d]pyrimidine] had an IC50 not below 1000 nM.

With `CC(C)(N)CC(=O)N1CC2(CCN(c3ncnc4sc(CC(F)(F)F)cc34)CC2)C1` [Example 17, 3-amino-3-methyl-1-(7-(6-(2,2,2-trifluoroethyl)thieno[2,3-d]pyrimidin-4-yl)-2,7-diazaspiro[3.5]nonan-2-yl)butan-1-one], the half-maximal inhibitory concentration (IC50) is not below 1000 nM.

For `FC(F)(F)Cc1cc2c(N3CCC4(CC3)CN(CC3CCOCC3)C4)ncnc2s1` [Example 19, 4-(2-((tetrahydro-2H-pyran-4-yl)methyl)-2,7-diazaspiro[3.5]nonan-7-yl)-6-(2,2,2-trifluoroethyl)thieno[2,3-d]pyrimidine], the IC50 lay within 100 to 1000 nM.

In turn, `Cc1c(CN2CC3(CCN(c4ncnc5sc(CC(F)(F)F)cc45)CC3)C2)ccc2[nH]c(C#N)cc12` [Example 21, 4-methyl-5-((7-(6-(2,2,2-trifluoroethyl)thieno[2,3-d]pyrimidin-4-yl)-2,7-diazaspiro[3.5]nonan-2-yl)methyl)-1H-indole-2-carbonitrile] came in with an IC50 of 100 to 1000 nM.

For the molecule `FC(F)(F)Cc1cc2c(N3CCC4(CCN(CC5CCOC5)C4)C3)ncnc2s1` (stereo not shown) [Example 31, 4-(7-((Tetrahydrofuran-3-yl)methyl)-2,7-diazaspiro[4.4]nonan-2-yl)-6-(2,2,2-trifluoroethyl)thieno[2,3-d]pyrimidine], the IC50 lay in the range of 100 to 1000 nM.

In turn, `FC(F)(F)Cc1cc2c(N3CCC4(CCN(CC5CCC(F)(F)CC5)C4)C3)ncnc2s1` (stereo not shown) [Example 32, 4-(7-((4,4-difluorocyclohexyl)methyl)-2,7-diazaspiro[4.4]nonan-2-yl)-6-(2,2,2-trifluoroethyl)thieno[2,3-d]pyrimidine] displayed a half-maximal inhibitory concentration (IC50) of 100 to 1000 nM.

Molecule `N#Cc1cccc(CN2CCC3(CCN(c4ncnc5sc(CC(F)(F)F)cc45)C3)C2)c1` (stereo not shown) [Example 35, 3-((7-(6-(2,2,2-Trifluoroethyl)thieno[2,3-d]pyrimidin-4-yl)-2,7-diazaspiro[4.4]nonan-2-yl)methyl)benzonitrile] yielded an IC50 of 100 to 1000 nM.

For `CS(=O)(=O)c1ccc(CN2CCC3(CCN(c4ncnc5sc(CC(F)(F)F)cc45)C3)C2)c(Cl)c1` (stereo not shown) [Example 36, 4-(7-(2-chloro-4-(methylsulfonyl)benzyl)-2,7-diazaspiro[4.4]nonan-2-yl)-6-(2,2,2-trifluoroethyl)thieno[2,3-d]pyrimidine], the IC50 was 100 to 1000 nM.

In turn, `FC(F)(F)Cc1cc2c(N3CCC4(CCN(C[C@H]5CC[C@H](C(F)(F)F)CC5)C4)C3)ncnc2s1` (stereo partly shown) [Example 37, 6-(2,2,2-Trifluoroethyl)-4-(7-(((1r,4r)-4-(trifluoromethyl)cyclohexyl)methyl)-2,7-diazaspiro[4.4]nonan-2-yl)thieno[2,3-d]pyrimidine] came in with an IC50 of 100 to 1000 nM.

`CC(=O)N[C@H]1CC[C@H](CN2CCC3(CCN(c4ncnc5sc(CC(F)(F)F)cc45)C3)C2)CC1` (stereo partly shown) [Example 47, N-((1r,4r)-4-((7-(6-(2,2,2-trifluoroethyl)thieno[2,3-d]pyrimidin-4-yl)-2,7-diazaspiro[4.4]nonan-2-yl)methyl)cyclohexyl)acetamide] showed an IC50 of 100 to 1000 nM.

Source of the values: patent US20190010167A1, “INHIBITORS OF THE MENIN-MLL INTERACTION” (Vitae Pharmaceuticals, Inc., priority 2015, published 2019).
